Molecular target: T1, USP25 (USP25-His6, Boston Biochem E-546) (Homo sapiens, UniProt Q9UHP3)
T1 construct: His6; purchased Boston Biochem E-546
T1 sequence (Q9UHP3 1-1055): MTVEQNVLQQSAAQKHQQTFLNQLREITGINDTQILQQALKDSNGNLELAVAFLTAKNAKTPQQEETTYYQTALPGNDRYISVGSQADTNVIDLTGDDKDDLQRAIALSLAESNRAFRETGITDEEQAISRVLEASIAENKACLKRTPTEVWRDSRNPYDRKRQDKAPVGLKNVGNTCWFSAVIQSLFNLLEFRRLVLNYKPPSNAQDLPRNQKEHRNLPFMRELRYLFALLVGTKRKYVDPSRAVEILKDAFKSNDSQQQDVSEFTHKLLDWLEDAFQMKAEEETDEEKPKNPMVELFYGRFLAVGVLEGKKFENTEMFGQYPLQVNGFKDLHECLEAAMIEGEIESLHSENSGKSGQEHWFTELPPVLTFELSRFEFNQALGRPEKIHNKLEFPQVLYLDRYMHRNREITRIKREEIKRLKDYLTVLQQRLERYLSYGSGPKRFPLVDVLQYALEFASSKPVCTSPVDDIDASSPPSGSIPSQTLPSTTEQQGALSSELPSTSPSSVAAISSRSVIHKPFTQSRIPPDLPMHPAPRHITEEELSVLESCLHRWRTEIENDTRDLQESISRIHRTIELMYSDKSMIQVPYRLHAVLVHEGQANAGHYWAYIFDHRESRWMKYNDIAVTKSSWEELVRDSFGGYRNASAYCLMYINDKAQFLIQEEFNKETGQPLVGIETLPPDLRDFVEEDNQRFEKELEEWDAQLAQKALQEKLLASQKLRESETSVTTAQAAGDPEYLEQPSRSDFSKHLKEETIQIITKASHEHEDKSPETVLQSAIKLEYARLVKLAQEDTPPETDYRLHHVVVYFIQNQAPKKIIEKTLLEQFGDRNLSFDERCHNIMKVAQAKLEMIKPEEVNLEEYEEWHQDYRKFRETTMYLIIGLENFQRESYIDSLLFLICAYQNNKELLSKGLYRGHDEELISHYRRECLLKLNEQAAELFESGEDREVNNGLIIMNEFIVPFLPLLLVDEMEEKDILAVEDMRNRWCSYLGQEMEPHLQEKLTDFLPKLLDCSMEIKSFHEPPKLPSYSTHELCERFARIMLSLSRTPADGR
Test: Ubiquitin-Rhodamine 110 Assay for USP25 Activity, Example A-2
Type: biochemical
Details: Ubiquitin-Rhodamine 110 assay, Example A-2; read-out: USP25 A-2 IC50 range
Procedure, shortened: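 Inhibition is quantified as IC50 by 4-parameter fit of fluorescence (485/535 nm) from Ub-Rh110 hydrolysis. Enzyme USP25-His6 at 75 pM with 30 min compound preincubation, then 25 nM substrate for 45 min at room temperature in pH 8.0 Tris buffer containing BME.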

Row | SMILES | IC50
1 | Cc1cc(C)c2c(N)c(C(=O)N[C@H]3COc4cc(N5CC[C@@H]6CNC[C@@H]65)cc(F)c4C3)sc2n1 (single isomer, unassigned) [Example 223] | 50 to 200 nM
2 | CO[C@H]1CN(c2nc3c(cc2F)C[C@@H](NC(=O)c2sc4nc(C)ccc4c2N)CC3)C[C@@H]1N [Example 183, 3-amino-N-[(6S)-2-[(3S,4S)-3-amino-4-methoxypyrrolidin-1-yl]-3-fluoro-5,6,7,8-tetrahydroquinolin-6-yl]-6-methylthieno[2,3-b]pyridine-2-carboxamide] | > 2000 nM
3 | CO[C@H]1CN(c2cc3c(cc2C#N)C[C@@H](NC(=O)c2sc4nc(C)ccc4c2N)CC3)C[C@@H]1N [Example 201, 3-amino-N-[(2S)-6-[(3S,4S)-3-amino-4-methoxypyrrolidin-1-yl]-7-cyano-1,2,3,4-tetrahydronaphthalen-2-yl]-6-methylthieno[2,3-b]pyridine-2-carboxamide] | 200 to 2000 nM
4 | CO[C@H]1CN(c2ccc3c(c2)OC[C@H](NC(=O)c2sc4nc(C)ccc4c2N)C3)C[C@@H]1NC(C)=O [Example 213, 3-amino-N-[(3R)-7-[(3S,4S)-3-acetamido-4-methoxypyrrolidin-1-yl]-3,4-dihydro-2H-1-benzopyran-3-yl]-6-methylthieno[2,3-b]pyridine-2-carboxamide] | 200 to 2000 nM
5 | N#Cc1c(N2CC3CCC(C2)N3)cc(F)c2c1OC[C@H](NC(=O)c1cnc3c(c1)[C@H]1C[C@H]1CN3)C2 [Example 229, (6aR,7aS)-N-[(3R)-8-cyano-7-{3,8-diazabicyclo[3.2.1]octan-3-yl}-5-fluoro-3,4-dihydro-2H-1-benzopyran-3-yl]-5H,6H,6aH,7H,7aH-cyclopropa[c]1,8-naphthyridine-2-carboxamide] | > 2000 nM
6 | COC[C@@H]1CN(c2ccc3c(c2)CC[C@H](NC(=O)c2sc4nc(C)ccc4c2N)C3)C[C@@H]1N [Example 252, 3-amino-N-[(2S)-6-[(3R,4R)-3-amino-4-(methoxymethyl)pyrrolidin-1-yl]-1,2,3,4-tetrahydronaphthalen-2-yl]-6-methylthieno[2,3-b]pyridine-2-carboxamide] | 200 to 2000 nM
7 | Cc1ccc2c(N)c(C(=O)N[C@H]3COc4cc(N5C[C@@H](N)CC[C@@H]5C(F)(F)F)ccc4C3)sc2n1 [Example 246, 3-amino-N-[(3R)-7-[(2R,5S)-5-amino-2-(trifluoromethyl)piperidin-1-yl]-3,4-dihydro-2H-1-benzopyran-3-yl]-6-methylthieno[2,3-b]pyridine-2-carboxamide] | 1 to 50 nM
8 | CO[C@H]1CN(c2ccc3c(c2C#N)CC[C@H](NC(=O)c2sc4nc(C)ccc4c2N)C3)C[C@@H]1N [Example 178, 3-amino-N-[(2S)-6-[(3S,4S)-3-amino-4-methoxypyrrolidin-1-yl]-5-cyano-1,2,3,4-tetrahydronaphthalen-2-yl]-6-methylthieno[2,3-b]pyridine-2-carboxamide] | 200 to 2000 nM
9 | O=C(N[C@H]1CCc2cc(N3CC4CCC(C3)N4)cc(F)c2C1)c1cnc2c(c1)[C@@H]1C[C@@H]1CN2 [Example 191, (6aS,7aR)-N-[(2S)-6-{3,8-diazabicyclo[3.2.1]octan-3-yl}-8-fluoro-1,2,3,4-tetrahydronaphthalen-2-yl]-5H,6H,6aH,7H,7aH-cyclopropa[c]1,8-naphthyridine-2-carboxamide] | > 2000 nM
10 | COC[C@H]1CN(c2cc(F)c3c(c2)OC[C@H](NC(=O)c2sc4nc(C)ccc4c2N)C3)C[C@H]1N [Example 251, 3-amino-N-[(3R)-7-[(3S,4S)-3-amino-4-(methoxymethyl)pyrrolidin-1-yl]-5-fluoro-3,4-dihydro-2H-1-benzopyran-3-yl]-6-methylthieno[2,3-b]pyridine-2-carboxamide] | 50 to 200 nM
11 | Cc1ccc2c(N)c(C(=O)N[C@H]3CCc4nc(N5CC[C@@H]6CNC[C@@H]65)ccc4C3)sc2n1 [Example 217, N-[(6S)-2-[(3aR,6aR)-octahydropyrrolo[2,3-c]pyrrol-1-yl]-5,6,7,8-tetrahydroquinolin-6-yl]-3-amino-6-methylthieno[2,3-b]pyridine-2-carboxamide] | 50 to 200 nM
12 | Cc1ccc2c(N)c(C(=O)N[C@H]3Cc4ccc(N5CCNCC5)nc4[C@@H](C)C3)sc2n1 [Example 206, 3-amino-6-methyl-N-[(6R,8S)-8-methyl-2-(piperazin-1-yl)-5,6,7,8-tetrahydroquinolin-6-yl]thieno[2,3-b]pyridine-2-carboxamide] | > 2000 nM
13 | Cc1ccc2c(N)c(C(=O)N[C@H]3COc4cc(N5CC[C@@H]6CCNC[C@@H]65)ccc4C3)sc2n1 [Example 225] | 1 to 50 nM
14 | Cc1ccc2c(N)c(C(=O)N[C@H]3COc4cc(N5C[C@@H](N)C(C)(C)C5)ccc4C3)sc2n1 [Example 215, 3-amino-N-[(3R)-7-[(4S)-4-amino-3,3-dimethylpyrrolidin-1-yl]-3,4-dihydro-2H-1-benzopyran-3-yl]-6-methylthieno[2,3-b]pyridine-2-carboxamide] | 50 to 200 nM
15 | CO[C@]1(C)CN(c2ccc3c(n2)CC[C@H](NC(=O)c2sc4nc(C)ccc4c2N)C3)C[C@H]1N [Example 211, 3-amino-N-[(6S)-2-[(3R,4R)-4-amino-3-methoxy-3-methylpyrrolidin-1-yl]-5,6,7,8-tetrahydroquinolin-6-yl]-6-methylthieno[2,3-b]pyridine-2-carboxamide] | > 2000 nM
16 | Cc1ccc2c(N)c(C(=O)N[C@H]3COc4cc(N5CC6CCC[C@]6(N)C5)ccc4C3)sc2n1 (stereo partly drawn) [Example 249, N-[(3R)-7-[(3aR)-3a-amino-octahydrocyclopenta[c]pyrrol-2-yl]-3,4-dihydro-2H-1-benzopyran-3-yl]-3-amino-6-methylthieno[2,3-b]pyridine-2-carboxamide] | 50 to 200 nM
17 | CO[C@H]1CN(c2cc3c(c(F)c2C#N)C[C@@H](NC(=O)c2sc4nc(C)cnc4c2N)CO3)C[C@@H]1N [Example 199, 7-amino-N-[(3R)-7-[(3S,4S)-3-amino-4-methoxypyrrolidin-1-yl]-6-cyano-5-fluoro-3,4-dihydro-2H-1-benzopyran-3-yl]-3-methylthieno[2,3-b]pyrazine-6-carboxamide] | 50 to 200 nM
18 | Cc1ccc2c(N)c(C(=O)N[C@H]3COc4cc(N5C[C@@H](N)C(F)(F)C5)ccc4C3)sc2n1 [Example 257, 3-amino-N-[(3R)-7-[(4R)-4-amino-3,3-difluoropyrrolidin-1-yl]-3,4-dihydro-2H-1-benzopyran-3-yl]-6-methylthieno[2,3-b]pyridine-2-carboxamide] | 50 to 200 nM
19 | Cc1ccc2c(N)c(C(=O)N[C@H]3COc4cc(N5CCO[C@H]6CNC[C@H]65)ccc4C3)sc2n1 [Example 184, N-[(3R)-7-[(4aR, 7aS)-octahydropyrrolo[3,4-b]morpholin-4-yl]-3,4-dihydro-2H-1-benzopyran-3-yl]-3-amino-6-methylthieno[2,3-b]pyridine-2-carboxamide] | 50 to 200 nM
20 | N#Cc1c(N2CC3CCC(C2)N3)cc(F)c2c1OC[C@H](NC(=O)c1cnc3c(c1)[C@@H]1C[C@@H]1CN3)C2 [Example 228, (6aS,7aR)-N-[(3R)-8-cyano-7-{3,8-diazabicyclo[3.2.1]octan-3-yl}-5-fluoro-3,4-dihydro-2H-1-benzopyran-3-yl]-5H,6H,6aH,7H,7aH-cyclopropa[c]1,8-naphthyridine-2-carboxamide] | 200 to 2000 nM
21 | N#Cc1c(N2CC3CCC(C2)N3)cc(F)c2c1CC[C@H](NC(=O)c1cnc3c(c1)[C@@H]1C[C@@H]1CN3)C2 [Example 195, (6aS,7aR)-N-[(2S)-5-cyano-6-{3,8-diazabicyclo[3.2.1]octan-3-yl}-8-fluoro-1,2,3,4-tetrahydronaphthalen-2-yl]-5H,6H,6aH,7H,7aH-cyclopropa[c]1,8-naphthyridine-2-carboxamide] | 50 to 200 nM
22 | Cc1ccc2c(N)c(C(=O)N[C@H]3COc4cc(N5C[C@H](N)C(C)(C)C5)ccc4C3)sc2n1 [Example 214, 3-amino-N-[(3R)-7-[(4R)-4-amino-3,3-dimethylpyrrolidin-1-yl]-3,4-dihydro-2H-1-benzopyran-3-yl]-6-methylthieno[2,3-b]pyridine-2-carboxamide] | 50 to 200 nM
23 | Cc1ccc2c(N)c(C(=O)N[C@H]3Cc4ccc(N5CCNCC5)nc4[C@H](C)C3)sc2n1 [Example 208, 3-amino-6-methyl-N-[(6R,8R)-8-methyl-2-(piperazin-1-yl)-5,6,7,8-tetrahydroquinolin-6-yl]thieno[2,3-b]pyridine-2-carboxamide] | 200 to 2000 nM

From patent US11524966B1 (Valo Early Discovery, Inc., priority 2017, dated 2022)
